# In patent US9738634B2, “Heterocyclic amide compound and herbicide” (SYNGENTA PARTICIPATIONS AG, priority 2013, dated 2017):
# How the values were obtained:
# Assay type in all cases: in vivo
# [1] = test system: corn; experiment: Test Example 3: soil treatment, effect on crop; c: corn; conditions: treatment dosage 135.45 g/ha
# Procedure, shortened: (§1)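 Crop and weed responses were judged three weeks after a uniform surface spray of the water-diluted emulsion at the given g/ha rate. Seeds sat beneath about 1.5 cm of sterilized diluvial soil, and boxes stood in a greenhouse at 25 to 30° C.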
# [2] = test system: oval-leafed pondweed; experiment: Test Example 2: weedkilling efficacy, growth period weed treatment in the submerged state; C: oval-leafed pondweed; conditions: treatment dosage 108.36 g/ha
# Procedure, shortened: (§2)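 Seedlings at 1-2 leaves in 4 cm-deep submerged alluvial soil received emulsion formulations on the water surface, dosed per hectare; effects were judged 3 weeks on.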
# [3] = test system: corn; experiment: Test Example 4: foliar treatment, effect on crop; c: corn; conditions: treatment dosage 135.45 g/ha
# Procedure: (§3) Testing of Weedkilling Efficacy by Foliar Treatment
# (§4) Sterilized diluvial soil was introduced into 21 cm long, 13 cm wide, 7 cm deep plastic boxes, and seeds of crabgrass, green foxtail, barnyard grass, wild oat, black-grass, Italian ryegrass, common wind-grass, Indian mallow, redroot pigweed, fig-leafed goosefoot, chickweed, catchweed, birds-eye speedwell, corn, soybean, rice, wheat, beet and rapeseed were each spot-sown, and covered with about 1.5 cm of soil, then the plants were grown in a greenhouse at 25 to 30° C.
# (§5) After they had grown for 14 days, emulsions of compounds of the present invention prepared according to compounding example 2 were diluted with water to give the specified dosages, and applied uniformly onto the stem and leaf parts with a small sprayer. 3 weeks after the pesticide treatment the effect on each type of plant was investigated on the basis of the assessment criteria of test example 1.
# (§6) A: barnyard grass, B: bulrush, C: oval-leafed pondweed, D: crabgrass, E: green foxtail, F: barnyard grass, G: wild oat, H: black-grass, I: Italian ryegrass, J: common wind-grass, K: Indian mallow, L: redroot pigweed, M: fig-leafed goosefoot, N: chickweed, O: catchweed, p: birds-eye speedwell, a: transplanted rice, b: directly sown rice, c: corn, d: soybean, e: wheat, f: beet, g: rapeseed
# (§7) Further, pesticide dosage (g/ha) indicates the concentration regulated such that treatment was with only the stated number of grams (g), when calculated per hectare (ha).
# [4] = test system: soybean; experiment: Test Example 4: foliar treatment, effect on crop; d: soybean; conditions: treatment dosage 135.45 g/ha
# Procedure: as §3, §4, §5, §6, §7
# [5] = test system: transplanted rice; experiment: Test Example 1: preemergent weed treatment in the submerged state, effect on crop; a: transplanted rice; conditions: treatment dosage 108.36 g/ha
# Procedure, shortened: (§8)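 Submerged pre-emergence treatment, water-surface application of compound emulsion at g/ha dosages; 4 cm flooded alluvial soil, weeds sown and 2.5-leaf rice transplanted same day. Rated after 3 weeks, greenhouse.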
# [6] = test system: crabgrass; experiment: Test Example 3: weedkilling efficacy through soil treatment; D: crabgrass; conditions: treatment dosage 135.45 g/ha
# Procedure, shortened: as §1
# [7] = test system: directly sown rice; experiment: Test Example 3: soil treatment, effect on crop; b: directly sown rice; conditions: treatment dosage 135.45 g/ha
# Procedure, shortened: as §1
# [8] = test system: redroot pigweed; experiment: Test Example 4: weedkilling efficacy by foliar treatment; L: redroot pigweed; conditions: treatment dosage 135.45 g/ha
# Procedure: as §3, §4, §5, §6, §7
# [9] = test system: beet; experiment: Test Example 4: foliar treatment, effect on crop; f: beet; conditions: treatment dosage 135.45 g/ha
# Procedure: as §3, §4, §5, §6, §7
# [10] = test system: catchweed; experiment: Test Example 4: weedkilling efficacy by foliar treatment; O: catchweed; conditions: treatment dosage 135.45 g/ha
# Procedure: as §3, §4, §5, §6, §7
# [11] = test system: wheat; experiment: Test Example 3: soil treatment, effect on crop; e: wheat; conditions: treatment dosage 135.45 g/ha
# Procedure, shortened: as §1
# [12] = test system: Italian ryegrass; experiment: Test Example 4: weedkilling efficacy by foliar treatment; I: Italian ryegrass; conditions: treatment dosage 135.45 g/ha
# Procedure: as §3, §4, §5, §6, §7
# [13] = test system: barnyard grass; experiment: Test Example 2: weedkilling efficacy, growth period weed treatment in the submerged state; A: barnyard grass; conditions: treatment dosage 108.36 g/ha
# Procedure, shortened: as §2
# [14] = test system: green foxtail; experiment: Test Example 4: weedkilling efficacy by foliar treatment; E: green foxtail; conditions: treatment dosage 135.45 g/ha
# Procedure: as §3, §4, §5, §6, §7
# [15] = test system: black-grass; experiment: Test Example 3: weedkilling efficacy through soil treatment; H: black-grass; conditions: treatment dosage 135.45 g/ha
# Procedure, shortened: as §1
# [16] = test system: birds-eye speedwell; experiment: Test Example 3: weedkilling efficacy through soil treatment; p: birds-eye speedwell; conditions: treatment dosage 135.45 g/ha
# Procedure, shortened: as §1
# [17] = test system: redroot pigweed; experiment: Test Example 3: weedkilling efficacy through soil treatment; L: redroot pigweed; conditions: treatment dosage 135.45 g/ha
# Procedure, shortened: as §1
# [18] = test system: wheat; experiment: Test Example 4: foliar treatment, effect on crop; e: wheat; conditions: treatment dosage 135.45 g/ha
# Procedure: as §3, §4, §5, §6, §7
# [19] = test system: crabgrass; experiment: Test Example 4: weedkilling efficacy by foliar treatment; D: crabgrass; conditions: treatment dosage 135.45 g/ha
# Procedure: as §3, §4, §5, §6, §7
# [20] = test system: fig-leafed goosefoot; experiment: Test Example 4: weedkilling efficacy by foliar treatment; M: fig-leafed goosefoot; conditions: treatment dosage 135.45 g/ha
# Procedure: as §3, §4, §5, §6, §7
# [21] = test system: Italian ryegrass; experiment: Test Example 3: weedkilling efficacy through soil treatment; I: Italian ryegrass; conditions: treatment dosage 135.45 g/ha
# Procedure, shortened: as §1
# [22] = test system: chickweed; experiment: Test Example 4: weedkilling efficacy by foliar treatment; N: chickweed; conditions: treatment dosage 135.45 g/ha
# Procedure: as §3, §4, §5, §6, §7
# [23] = test system: oval-leafed pondweed; experiment: Test Example 1: weedkilling efficacy, preemergent weed treatment in the submerged state; C: oval-leafed pondweed; conditions: treatment dosage 108.36 g/ha
# Procedure, shortened: as §8
# [24] = test system: soybean; experiment: Test Example 3: soil treatment, effect on crop; d: soybean; conditions: treatment dosage 135.45 g/ha
# Procedure, shortened: as §1
# [25] = test system: birds-eye speedwell; experiment: Test Example 4: weedkilling efficacy by foliar treatment; p: birds-eye speedwell; conditions: treatment dosage 135.45 g/ha
# Procedure: as §3, §4, §5, §6, §7
# [26] = test system: fig-leafed goosefoot; experiment: Test Example 3: weedkilling efficacy through soil treatment; M: fig-leafed goosefoot; conditions: treatment dosage 135.45 g/ha
# Procedure, shortened: as §1
# [27] = test system: bulrush; experiment: Test Example 1: weedkilling efficacy, preemergent weed treatment in the submerged state; B: bulrush; conditions: treatment dosage 108.36 g/ha
# Procedure, shortened: as §8
# [28] = test system: Indian mallow; experiment: Test Example 3: weedkilling efficacy through soil treatment; K: Indian mallow; conditions: treatment dosage 135.45 g/ha
# Procedure, shortened: as §1
# [29] = test system: black-grass; experiment: Test Example 4: weedkilling efficacy by foliar treatment; H: black-grass; conditions: treatment dosage 135.45 g/ha
# Procedure: as §3, §4, §5, §6, §7
# [30] = test system: Indian mallow; experiment: Test Example 4: weedkilling efficacy by foliar treatment; K: Indian mallow; conditions: treatment dosage 135.45 g/ha
# Procedure: as §3, §4, §5, §6, §7
# [31] = test system: barnyard grass; experiment: Test Example 1: weedkilling efficacy, preemergent weed treatment in the submerged state; A: barnyard grass; conditions: treatment dosage 108.36 g/ha
# Procedure, shortened: as §8
# [32] = test system: bulrush; experiment: Test Example 2: weedkilling efficacy, growth period weed treatment in the submerged state; B: bulrush; conditions: treatment dosage 108.36 g/ha
# Procedure, shortened: as §2
# [33] = test system: green foxtail; experiment: Test Example 3: weedkilling efficacy through soil treatment; E: green foxtail; conditions: treatment dosage 135.45 g/ha
# Procedure, shortened: as §1
# [34] = test system: directly sown rice; experiment: Test Example 4: foliar treatment, effect on crop; b: directly sown rice; conditions: treatment dosage 135.45 g/ha
# Procedure: as §3, §4, §5, §6, §7
# [35] = test system: chickweed; experiment: Test Example 3: weedkilling efficacy through soil treatment; N: chickweed; conditions: treatment dosage 135.45 g/ha
# Procedure, shortened: as §1
smiles,measurement,setting,value
CC1=C(c2ccccc2)C(=O)N(C(C)(C)C(=O)Nc2cccc(C)n2)CO1 [B-2-53],c (corn) effect on crop grade,[1],0 (weed kill ratio 5% or less (practically no effect))
same,C (oval-leafed pondweed) weedkilling efficacy grade,[2],"4 (weed kill ratio 70% or more, less than 90%)"
same,c (corn) effect on crop grade,[3],"1 (weed kill ratio 5% or more, less than 20%)"
same,d (soybean) effect on crop grade,[4],"4 (weed kill ratio 70% or more, less than 90%)"
same,a (transplanted rice) effect on crop grade,[5],0 (weed kill ratio 5% or less (practically no effect))
same,D (crabgrass) weedkilling efficacy grade,[6],"5 (weed kill ratio 90% or more, (practically complete withering))"
same,b (directly sown rice) effect on crop grade,[7],"3 (weed kill ratio 40% or more, less than 70%)"
same,L (redroot pigweed) weedkilling efficacy grade,[8],"4 (weed kill ratio 70% or more, less than 90%)"
same,f (beet) effect on crop grade,[9],0 (weed kill ratio 5% or less (practically no effect))
same,O (catchweed) weedkilling efficacy grade,[10],"3 (weed kill ratio 40% or more, less than 70%)"
same,e (wheat) effect on crop grade,[11],"2 (weed kill ratio 20% or more, less than 40%)"
same,I (Italian ryegrass) weedkilling efficacy grade,[12],"5 (weed kill ratio 90% or more, (practically complete withering))"
same,A (barnyard grass) weedkilling efficacy grade,[13],"3 (weed kill ratio 40% or more, less than 70%)"
same,E (green foxtail) weedkilling efficacy grade,[14],"5 (weed kill ratio 90% or more, (practically complete withering))"
same,H (black-grass) weedkilling efficacy grade,[15],"5 (weed kill ratio 90% or more, (practically complete withering))"
same,P (birds-eye speedwell) weedkilling efficacy grade,[16],"5 (weed kill ratio 90% or more, (practically complete withering))"
same,L (redroot pigweed) weedkilling efficacy grade,[17],"3 (weed kill ratio 40% or more, less than 70%)"
same,e (wheat) effect on crop grade,[18],"1 (weed kill ratio 5% or more, less than 20%)"
same,D (crabgrass) weedkilling efficacy grade,[19],"5 (weed kill ratio 90% or more, (practically complete withering))"
same,M (fig-leafed goosefoot) weedkilling efficacy grade,[20],"3 (weed kill ratio 40% or more, less than 70%)"
same,I (Italian ryegrass) weedkilling efficacy grade,[21],"5 (weed kill ratio 90% or more, (practically complete withering))"
same,N (chickweed) weedkilling efficacy grade,[22],"1 (weed kill ratio 5% or more, less than 20%)"
same,C (oval-leafed pondweed) weedkilling efficacy grade,[23],"5 (weed kill ratio 90% or more, (practically complete withering))"
same,d (soybean) effect on crop grade,[24],0 (weed kill ratio 5% or less (practically no effect))
same,P (birds-eye speedwell) weedkilling efficacy grade,[25],"4 (weed kill ratio 70% or more, less than 90%)"
same,M (fig-leafed goosefoot) weedkilling efficacy grade,[26],"4 (weed kill ratio 70% or more, less than 90%)"
same,B (bulrush) weedkilling efficacy grade,[27],"5 (weed kill ratio 90% or more, (practically complete withering))"
same,K (Indian mallow) weedkilling efficacy grade,[28],0 (weed kill ratio 5% or less (practically no effect))
same,H (black-grass) weedkilling efficacy grade,[29],"5 (weed kill ratio 90% or more, (practically complete withering))"
same,K (Indian mallow) weedkilling efficacy grade,[30],"4 (weed kill ratio 70% or more, less than 90%)"
same,A (barnyard grass) weedkilling efficacy grade,[31],"5 (weed kill ratio 90% or more, (practically complete withering))"
same,B (bulrush) weedkilling efficacy grade,[32],"5 (weed kill ratio 90% or more, (practically complete withering))"
same,E (green foxtail) weedkilling efficacy grade,[33],"5 (weed kill ratio 90% or more, (practically complete withering))"
same,b (directly sown rice) effect on crop grade,[34],"4 (weed kill ratio 70% or more, less than 90%)"
same,N (chickweed) weedkilling efficacy grade,[35],0 (weed kill ratio 5% or less (practically no effect))
